Entries after “also recorded” stand apart in the source; their conditions may differ.
System: vaginolysin (vly)
Format: cell-based, Gardnerella vaginalis

C[C@@H](O)[C@H](O)[C@H](O)[C@@H](O)C=O [D-fucose, 6-deoxy-D-galactose] was tested, and the “effect on vly expression, in words” value was “expressed less vaginolysin; also recorded: significantly reduce vly expression”.
